According to patent EP3807270B1, “NOVEL HETEROARYL HETEROCYCLYL COMPOUNDS FOR THE TREATMENT OF AUTOIMMUNE DISEASE” (F. Hoffmann-La Roche AG, priority 2018, dated 2019):

Target: T1, hTLR7 (Homo sapiens, UniProt Q9NYK1)
T1 sequence (Q9NYK1 27-1049): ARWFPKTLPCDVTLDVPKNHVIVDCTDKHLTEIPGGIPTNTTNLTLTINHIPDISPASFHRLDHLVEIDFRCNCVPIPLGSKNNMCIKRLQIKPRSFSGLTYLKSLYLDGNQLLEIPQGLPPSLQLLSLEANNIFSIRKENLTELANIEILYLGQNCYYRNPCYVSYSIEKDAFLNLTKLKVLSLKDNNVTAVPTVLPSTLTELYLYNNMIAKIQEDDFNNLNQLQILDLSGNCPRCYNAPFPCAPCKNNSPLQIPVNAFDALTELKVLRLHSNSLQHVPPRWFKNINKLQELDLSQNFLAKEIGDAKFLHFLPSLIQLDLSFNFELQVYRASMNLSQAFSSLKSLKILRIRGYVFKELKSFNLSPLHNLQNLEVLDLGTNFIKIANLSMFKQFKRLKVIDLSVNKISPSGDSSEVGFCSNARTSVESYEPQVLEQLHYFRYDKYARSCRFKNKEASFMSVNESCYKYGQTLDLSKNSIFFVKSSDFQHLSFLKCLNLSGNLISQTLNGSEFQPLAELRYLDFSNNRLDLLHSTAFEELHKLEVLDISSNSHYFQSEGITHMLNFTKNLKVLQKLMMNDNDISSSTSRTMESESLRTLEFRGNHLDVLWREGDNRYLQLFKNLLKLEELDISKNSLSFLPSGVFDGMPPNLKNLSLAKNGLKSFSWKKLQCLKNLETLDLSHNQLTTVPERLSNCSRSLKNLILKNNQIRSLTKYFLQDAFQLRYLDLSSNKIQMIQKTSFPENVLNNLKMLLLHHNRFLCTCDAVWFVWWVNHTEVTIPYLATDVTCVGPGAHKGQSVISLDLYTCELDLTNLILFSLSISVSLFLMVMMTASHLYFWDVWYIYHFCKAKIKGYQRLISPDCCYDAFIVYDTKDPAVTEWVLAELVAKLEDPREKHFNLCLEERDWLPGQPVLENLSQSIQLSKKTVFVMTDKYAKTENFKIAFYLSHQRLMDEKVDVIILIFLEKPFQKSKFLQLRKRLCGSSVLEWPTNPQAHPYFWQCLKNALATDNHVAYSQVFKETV
Assay: HEK293-Blue-hTLR-7 cells assay (SEAP reporter, R848 stimulation)
Type: cell-based
Parameters: host or cells: HEK293 (HEK-Blue)
Conditions: HEK293-Blue-hTLR7 cells, R848, 20 hrs; read-out: HEK/hTLR7 IC50
Summary of the method: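 HEK293-Blue cells stably expressing human TLR7 with an NF-κB/AP-1-driven SEAP reporter were treated with serially diluted compound (1% DMSO final) plus R848 for 20 h at 37 °C. Supernatant SEAP activity was measured with QUANTI-Blue substrate after 2 h at 37 °C, with absorbance read at 620-655 nm.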

Compound	IC50 [nM]
C[C@@H]1CN(c2ccc(C#N)c3nccnc23)C[C@H](CN2CCN(c3cc4c(cn3)[C@@H](C)NCC4)CC2)O1 (single isomer, unassigned) [Example 86]	6
[2H]c1nc2c(C#N)ccc(N3C[C@H](CN4CCN(c5cc6c(cn5)[C@H](C)NCC6)CC4)O[C@H](C)C3)c2nc1[2H] (single isomer, unassigned) [Example 94]	4
[2H]c1nc2c(C#N)ccc(N3C[C@H](CN4CCN(c5cc6c(cn5)[C@@H](C)NCC6)CC4)O[C@H](C)C3)c2nc1[2H] (single isomer, unassigned) [Example 95]	5
C[C@@H]1CN(c2ccc(C#N)c3nccnc23)C[C@H](CN2CCN(c3cc4c(cn3)CCN[C@@H]4C)CC2)O1 (single isomer, unassigned) [Example 87]	4
[2H]c1nc2c(C#N)ccc(N3C[C@H](CN4CCN(c5ccc6c(n5)CN[C@H]6C)CC4)O[C@H](C)C3)c2nc1[2H] (single isomer, unassigned) [Example 96]	4
[2H]c1nc2c(C#N)ccc(N3C[C@H](CN4CCN(c5ccc6c(n5)CN[C@@H]6C)CC4)O[C@H](C)C3)c2nc1[2H] (single isomer, unassigned) [Example 97]	7

Other lines, results leading:

IC50 [nM]	Compound
11	[2H]c1ccc2c(N3C[C@H](CN4CCN(c5ccc6c(n5)CN[C@H]6C)CC4)O[C@H](C)C3)ccc(C#N)c2n1 (single isomer, unassigned) [Example 99]
42	C[C@@H]1CN(c2ccc(C#N)c3ncccc23)C[C@H](CN2CCN(c3ccc4c(c3)CNCC4)CC2)O1 [Example 9, 5-[(2R,6S)-2-methyl-6-[[4-(1,2,3,4-tetrahydroisoquinolin-7-yl)piperazin-1-yl]methyl]morpholin-4-yl]quinoline-8-carbonitrile]
35	C[C@@H]1CN(c2ccc(C#N)c3ncccc23)C[C@H](CN2CCN(c3cnc4c(c3)CNC4)CC2)O1 [Example 10, 5-[(2S,6R)-2-[[4-(6,7-dihydro-5H-pyrrolo[3,4-b]pyridin-3-yl)piperazin-1-yl]methyl]-6-methyl-morpholin-4-yl] quinoline-8-carbonitrile]
6	C[C@@H]1CN(c2ccc(C#N)c3nccnc23)C[C@H](CN2CCN(c3cc4c(cn3)CCN[C@H]4C)CC2)O1 (single isomer, unassigned) [Example 88]
8	[2H]c1ccc2c(N3C[C@H](CN4CCN(c5ccc6c(n5)CN[C@@H]6C)CC4)O[C@H](C)C3)ccc(C#N)c2n1 (single isomer, unassigned) [Example 98]
